In patent US6509163B1, “Methods of screening modulators of mammalian P2X7 purinergic receptors” (Glaxo Group Limited, priority 1997, dated 2003):
Like-named read-outs stand apart in the source and are kept apart here. Values belong to the compound of their own block, whether it stands above or below them.

What was measured:
Assay type in all cases: cell-based
[1] = molecular target: T1, rP2X7 receptor (Rattus norvegicus, UniProt Q64663); experiment: Whole-cell recordings in HEK293 cells transiently transfected with rP2X7 receptors (Example 3)
T1 construct: yielding a construct that encoded the entire P2X7 protein; expressed in transfected cells
T1 sequence (Q64663 1-595): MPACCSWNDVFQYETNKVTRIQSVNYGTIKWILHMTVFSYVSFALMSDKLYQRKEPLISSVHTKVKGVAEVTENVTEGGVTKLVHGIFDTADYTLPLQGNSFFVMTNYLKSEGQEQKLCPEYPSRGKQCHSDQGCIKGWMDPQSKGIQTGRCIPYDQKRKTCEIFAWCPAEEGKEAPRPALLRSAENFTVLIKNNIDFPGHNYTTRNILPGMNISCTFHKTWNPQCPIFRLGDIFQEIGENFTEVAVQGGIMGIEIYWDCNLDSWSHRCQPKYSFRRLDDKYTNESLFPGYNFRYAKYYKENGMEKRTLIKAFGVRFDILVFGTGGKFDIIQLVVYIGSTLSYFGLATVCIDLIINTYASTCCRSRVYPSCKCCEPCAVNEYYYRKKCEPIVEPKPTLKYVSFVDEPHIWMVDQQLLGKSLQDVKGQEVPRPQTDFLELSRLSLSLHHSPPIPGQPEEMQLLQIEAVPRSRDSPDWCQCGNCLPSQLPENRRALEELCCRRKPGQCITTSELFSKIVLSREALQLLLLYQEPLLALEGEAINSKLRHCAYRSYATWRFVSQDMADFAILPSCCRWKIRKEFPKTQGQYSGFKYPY
Method: (§1) Cell culture. HEK293 cells were transiently transfected with cDNA (1 μg/ml) and lipofectin dissolved in Optimem (GIBCO) placed into petri dishes containing four coverslips onto which cells were plated at a density of about 8×10^4/coverslip. Cells were washed 5 h later and normal DMEM applied. Electrophysiological studies or dye uptake measurements were carried out 18-49 h later. For each set of transfections, parallel experiments were performed on HEK cells transfected with cDNA encoding both rP2X7 and hP2X7 receptors.
(§2) Electrophysiological experiments. Whole-cell recordings were made using the EPC9 patch-clamp amplifier and Pulse acquisition programs (HEKA, Lambrecht, Germany). Patch pipettes (5-7 MΩ) contained (mM) CsCl or NaCl 154, EGTA 10, HEPES 5. The normal extracellular solution contained (mM) NaCg 147, KCl2, CaCl2 2, MgCl2 1, HEPES 10 and glucose 12, and the “low divalent” solution had no magnesium and 0.3 mM CaCl2. Agonists were delivered by U-tube delivery system; antagonists, when applied, were present in both superfusion and U-tube. Experiments were carried out at room temperature.

[2] = molecular target: T2, P2X7 receptor (Rattus norvegicus, UniProt Q64663); experiment: Whole-cell recordings of agonist-evoked currents in HEK293 cells transfected with rat P2X7 cDNA (Example 2); details: for agonist effect (evoking inward current): concentration 300 to 1000 μM; for EC50: read-out: EC50 (half-maximal concentration) for current
T2 construct: yielding a construct that encoded the entire P2X7 protein; expressed in transfected cells
T2 sequence (Q64663 1-595): T1 sequence (Q64663 1-595)
Method: (§3) Whole-cell recordings were obtained at room temperature from HEK293 cells transiently or stably transfected with P2X7 cDNA, from HEK293 cells transiently transfected with P2X7ΔC cDNA, and from J774A.1 cells (American Type Culture Collection, Rockville, Md.). Agonist were applied for periods of 1 to 3 s by a fast-flow U-tube delivery system (Fenwick et al, J. Physiol. (London) 331:577 (1982)). The internal pipette solution was 140 mM cesium-aspartate or potassium-aspartate, 20 mM NaCl, 10 mM EGTA, and 5 mM Hepes: normal external solution was 145 mM NaCl, 2 mM KCl, 2 mM CaCl2, 1 mM MgCl2, 10 mM Hepes, and 12 mM glucose. Low divalent external solution was nominally magnesium-free with 0.3 mM CaCl2. For cells expressing P2X7 receptors and J774 cells, concentration-response curves were constructed in low divalent solution by recording currents in response to 1-s applications of agonist at 8-min intervals with normal external solution present for 6 min before each application. This protocol was necessary to prevent the development of sustained inward currents. Lipofectin was used for transfection (Buell et al, EMBO J. 15:55 (1996)).
Reversal potentals (Erev) were obtained by application of ATP (300 μM) or BzATP (30 μM) while the membrane was held at various potentals or by application of voltage ramps from −120 to 30 or 50 mV. Permeability ratios from (Erev) were calculated by first computing α (=Pna/PK, where P is permeability) for internal (i) and external (o) concentrations [Na]i=20 mM, [Na]o=145 mM, [Ko]=0 mM, and [K]i=140 mM from α={[145/exp(Erev)F/RT −20]}/140 (where F is the Faraday, R is the gas constant, and T is the absolute temperature). Other PK/PNa values, when [X]o=145 mM, [Na]i=20 mM, [K]i=140 mM, and [Na]o=[K]o=[X]i=0 mM, were computed from PK/PNa={[exp (ErevF/RT) (20=140α)}/145. In order of size (FIG. 3C), X was cesium, methylamine, tris(hydroxymethyl)-aminomethane, tetraethylammonium, and N-methyl-D-glucamine. The internal solution also contained 10 mM EGTA and 5 mM Hepes. External solutions also contained 10 mM glucose and normal or low concentrations of divalent cations; pH was maintained at 7.3 with HCl, histidine, or Hepes as required, and the osmolarity of all solutions was 295 to 315.

[3] = test system: J774 cells; experiment: Whole-cell recordings of BzATP-evoked currents in J774 macrophage cells; details: three J774 cells; read-out: half-maximal inhibition of currents evoked by 30 μM BzATP
Method: as §3

[4] = molecular target: T2, P2X7 receptor; experiment: Whole-cell recordings of agonist-evoked currents in HEK293 cells transfected with rat P2X7 cDNA (Example 2); details: inward currents, brief application (0.5 to 2 s)
[5] = molecular target: T3, hP2X7 receptor (Homo sapiens, UniProt Q99572); experiment: Whole-cell recordings in HEK293 cells transiently transfected with hP2X7 receptors (Example 3)
T3 construct: a clone containing the complete open reading frame of the hP2X7 receptor was constructed; expressed in transfected cells; host or cells: HEK293 (transient), pcDNA3
T3 sequence (Q99572 1-595): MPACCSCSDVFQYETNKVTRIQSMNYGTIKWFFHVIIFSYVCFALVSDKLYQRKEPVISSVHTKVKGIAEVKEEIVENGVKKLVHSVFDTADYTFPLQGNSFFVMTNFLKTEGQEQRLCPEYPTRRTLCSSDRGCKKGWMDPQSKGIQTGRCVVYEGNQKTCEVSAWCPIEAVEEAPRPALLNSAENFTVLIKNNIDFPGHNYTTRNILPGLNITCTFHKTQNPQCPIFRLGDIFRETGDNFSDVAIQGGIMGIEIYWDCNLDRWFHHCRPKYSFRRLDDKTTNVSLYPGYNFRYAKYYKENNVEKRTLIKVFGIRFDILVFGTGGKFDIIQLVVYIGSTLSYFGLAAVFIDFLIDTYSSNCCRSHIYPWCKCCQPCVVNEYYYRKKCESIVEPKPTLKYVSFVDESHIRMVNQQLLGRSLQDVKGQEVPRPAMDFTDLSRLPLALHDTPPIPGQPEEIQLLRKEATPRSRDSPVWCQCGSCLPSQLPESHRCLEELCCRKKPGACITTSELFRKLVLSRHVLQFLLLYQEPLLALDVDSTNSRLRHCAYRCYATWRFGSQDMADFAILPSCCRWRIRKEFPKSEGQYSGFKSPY
Method: as §1, §2

[6] = vs 30 μM BzATP, n=3, read-out: concentration causing half-maximal inhibition of currents
[7] = percentage of value in 1 mM magnesium

Structure (SMILES): Cc1ccc(C(=O)Nc2ccc(S(=O)(=O)O)c3cc(S(=O)(=O)O)cc(S(=O)(=O)O)c23)cc1NC(=O)c1cccc(NC(=O)Nc2cccc(C(=O)Nc3cc(C(=O)Nc4ccc(S(=O)(=O)O)c5cc(S(=O)(=O)O)cc(S(=O)(=O)O)c45)ccc3C)c2)c1 [suramin]
IC50 [1, 6]: 78 ± 3 µM
inhibition at 300 µM ([2]; read-out: inhibition of currents evoked by 30 μM BzATP): 15 to 38%

IC50 [1, 6]: 51 ± 4 µM
IC50 ([2]; four HEK cells, read-out: half-maximal inhibition of currents evoked by 30 μM BzATP): 45 ± 8 µM
Structure (SMILES): Cc1nc(N=Nc2ccc(S(=O)(=O)O)cc2S(=O)(=O)O)c(COP(=O)(O)O)c(C=O)c1O [PPADS, pyridoxal 5-phosphate-6-azophenyl 2′4′-disulfonic acid]
IC50 [3]: 60 ± 9 µM

agonist order of potency [4]: BzATP>>ATP>2MeSATP>ATP-γ-S>>ADP
Structure (SMILES): Nc1ncnc2c1ncn2[C@@H]1O[C@H](COP(=O)(O)OP(=O)(O)O)[C@@H](O)[C@H]1O [ADP]

agonist effect (evoking inward current) [2]: ineffective
Structure (SMILES): O=c1ccn([C@@H]2O[C@H](COP(=O)(O)OP(=O)(O)OP(=O)(O)O)[C@@H](O)[C@H]2O)c(=O)[nH]1 [UTP]

agonist order of potency [4]: BzATP>>ATP>2MeSATP>ATP-γ-S>>ADP
Structure (SMILES): CSc1nc(N)c2ncn([C@@H]3O[C@H](COP(=O)(O)OP(=O)(O)OP(=O)(O)O)[C@@H](O)[C@H]3O)c2n1 [2MeSATP]

agonist effect (evoking inward current) [2]: ineffective
Structure (SMILES): Nc1ncnc2c1ncn2[C@@H]1O[C@H](COP(=O)(O)OP(=O)(O)CP(=O)(O)O)[C@@H](O)[C@H]1O [βγ-methylene ATP]

agonist effect (evoking inward current) [2]: ineffective
Structure (SMILES): Nc1ncnc2c1ncn2[C@@H]1O[C@H](COP(=O)(O)CP(=O)(O)OP(=O)(O)O)[C@@H](O)[C@H]1O [αβ-methylene ATP]

agonist effect (evoking inward current) [2]: ineffective
Structure (SMILES): Nc1ncnc2c1ncn2[C@@H]1O[C@H](CO)[C@@H](O)[C@H]1O [adenosine]

EC50 at hP2X7 relative to rP2X7 receptor (fold greater) [5]: about 10 fold
agonist order of potency [4]: BzATP>>ATP>2MeSATP>ATP-γ-S>>ADP
EC50 ([2]; normal solution (2 mM CaCl2, 1 mM MgCl2), n=4): 115 ± 9 µM
EC50 ([2]; zero magnesium, n=7): 85 ± 8 µM
Structure (SMILES): Nc1ncnc2c1ncn2[C@@H]1O[C@H](COP(=O)(O)OP(=O)(O)OP(=O)(O)O)[C@@H](O)[C@H]1O [ATP]

block of currents evoked by 30 μM BzATP ([2]; 100 μM, cells preincubated for 1 to 2 hours, n=5): irreversibly blocked currents
Structure (SMILES): Nc1ncnc2c1ncn2[C@@H](C=O)O[C@@H](C=O)COP(=O)(O)OP(=O)(O)OP(=O)(O)O [Oxidized ATP]

agonist order of potency [4]: BzATP>>ATP>2MeSATP>ATP-γ-S>>ADP
Structure (SMILES): Nc1ncnc2c1ncn2[C@@H]1O[C@H](COP(=O)(O)OP(=O)(O)OP(O)(O)=S)[C@@H](O)[C@H]1O [ATP-γ-S]

IC50 ([5]; currents evoked by 300 μM BzATP, read-out: concentration of magnesium causing half-maximal inhibition of the current): 212 µM
increase of currents on removal of external magnesium [5, 7]: 670±80%
IC50 ([1]; currents evoked by 30 μM BzATP, read-out: concentration of magnesium causing half-maximal inhibition of the current): 780 µM
increase of currents on removal of external magnesium [1, 7]: 420±84%
Structure (SMILES): [Mg+2] [magnesium]

blocking current evoked by 30 μM BzATP ([2]; 100 μM, n=6): ineffective
Structure (SMILES): NC(N)=NC(=O)c1nc(Cl)c(N2CCCCCC2)nc1N [hexamethylene amiloride]
